{
  "source": "patent US6998259B1",
  "about": "“Enzymatic treatment of whey proteins for the production of antihypertensive peptides and the resulting products” (Davisco Foods International, priority 1999, dated 2006)",
  "key": {"[1]": {"target": "T1, Angiotensin Converting Enzyme (from rabbit lung) (Oryctolagus cuniculus, UniProt P12822)", "T1 construct": "Angiotensin Converting Enzyme (from rabbit lung); purchased Sigma Chemical Co. (St. Louis, USA); host or cells: rabbit lung tissue", "T1 sequence (P12822 34-1310)": "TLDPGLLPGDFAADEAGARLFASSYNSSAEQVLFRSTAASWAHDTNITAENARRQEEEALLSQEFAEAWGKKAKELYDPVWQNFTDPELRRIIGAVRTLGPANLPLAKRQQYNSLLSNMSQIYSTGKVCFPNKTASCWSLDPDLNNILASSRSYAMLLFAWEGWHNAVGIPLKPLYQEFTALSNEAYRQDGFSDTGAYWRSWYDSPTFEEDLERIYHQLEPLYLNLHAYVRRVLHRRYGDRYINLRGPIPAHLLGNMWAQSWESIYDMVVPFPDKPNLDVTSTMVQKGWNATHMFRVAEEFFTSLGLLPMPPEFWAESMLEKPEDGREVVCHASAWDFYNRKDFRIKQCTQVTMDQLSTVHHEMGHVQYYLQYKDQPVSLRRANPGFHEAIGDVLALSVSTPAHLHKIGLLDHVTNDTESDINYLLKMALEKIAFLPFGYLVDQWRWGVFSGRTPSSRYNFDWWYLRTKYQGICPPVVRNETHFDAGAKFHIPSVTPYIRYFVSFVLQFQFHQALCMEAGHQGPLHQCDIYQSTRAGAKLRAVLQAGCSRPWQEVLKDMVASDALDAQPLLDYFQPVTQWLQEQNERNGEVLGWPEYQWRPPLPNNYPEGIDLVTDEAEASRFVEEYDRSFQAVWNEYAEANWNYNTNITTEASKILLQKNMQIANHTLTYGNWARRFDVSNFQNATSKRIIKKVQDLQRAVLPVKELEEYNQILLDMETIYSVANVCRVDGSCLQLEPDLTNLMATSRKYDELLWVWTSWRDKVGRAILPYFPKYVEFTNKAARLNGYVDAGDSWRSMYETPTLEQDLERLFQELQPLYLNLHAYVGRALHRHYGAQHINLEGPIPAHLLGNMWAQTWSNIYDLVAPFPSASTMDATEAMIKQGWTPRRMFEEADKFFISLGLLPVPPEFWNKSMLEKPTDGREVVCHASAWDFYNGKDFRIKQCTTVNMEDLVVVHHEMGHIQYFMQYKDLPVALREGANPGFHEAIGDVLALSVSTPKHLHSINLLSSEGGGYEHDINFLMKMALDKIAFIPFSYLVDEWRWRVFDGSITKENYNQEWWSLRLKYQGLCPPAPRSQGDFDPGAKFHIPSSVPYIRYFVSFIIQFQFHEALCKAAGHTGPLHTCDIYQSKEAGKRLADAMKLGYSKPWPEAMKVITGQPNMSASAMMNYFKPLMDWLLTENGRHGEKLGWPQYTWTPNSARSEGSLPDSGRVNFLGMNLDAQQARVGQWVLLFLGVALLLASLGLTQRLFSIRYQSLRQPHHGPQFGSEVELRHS", "assay": "ACE-inhibitory activity, in vitro spectrophotometric assay (Cushman and Cheung, HHL substrate)", "format": "biochemical", "text": "Whey protein hydrolysate WPH 917 (84.5% protein w/w) was obtained from New Zealand Milk Product Inc. (Santa Rosa, USA). Whey protein hydrolysate LE80GF (80.0% w/w) was obtained from DMV International (New-York, USA). Whey protein isolate (BiPRO™) and β-lactoglobulin-rich product were obtained from Davisco Foods International (Le Sueur, Minn., USA). Purified peptidic sequence Ala-Leu-Pro-Met-His-Ile-Arg modelling the peptide f-142–148 from β-1g was chemically-synthetized by the Service de séquence de peptides de l'Est du Québec (Ste-Foy, Qc, Canada). HEPES Sodium salt, Hippuryl-L-Histidyl-L-Leucine, and Angiotensin Converting Enzyme (from rabbit lung) were purchased from Sigma Chemical Co. (St. Louis, USA). All other products used were analytical grade.\nThe ACE-inhibitory activity was measured in vitro by a spectrophotometric assay according to the method of Cushman and Cheung. (Cushman, D. N., Cheung, H. S. 1971 Spectrophotometric assay and properties of the angiotensin converting enzyme of rabbit lung. Biochemical Pharmacology, 20: 1637–1648.) According to this method, hippuric acid is liberated from hippuryl-L-histidyl-L-leucine (HHL) by the enzymatic reaction of ACE. After extraction by ethyl acetate and removal of ethyl acetate by heat evaporation, hippuric acid is dissolved in deionized water.\nInhibitory activity was calculated according to the following equation: Inhibitory activity (%)=[(Acontrol−Asample)/(Acontrol−Ablank)]×[…] 1 where A represents absorbance. A plot of the inhibitory activity (%) versus log10 of sample concentration (mg powder ml^−1) was generated using 6 different concentrations of samples for BIPRO™, AS-601 (BiPRO™β-1g), commercial hydrolysates (WPH 917, LE80GF) and of synthetic peptide (f142–148) from β-1g. Each concentration was tested in triplicate and the mean value was plotted in the curves. The IC50 value (expressed in terms of mg powder ml^−1, defined as the concentration of inhibitor which gives 50% inhibition of ACE activity, was calculated using the linear regression equations of the curves."}, "ACE": {"target": "ACE (Homo sapiens, UniProt P12821)", "sequence (P12821 30-1306, species assumed)": "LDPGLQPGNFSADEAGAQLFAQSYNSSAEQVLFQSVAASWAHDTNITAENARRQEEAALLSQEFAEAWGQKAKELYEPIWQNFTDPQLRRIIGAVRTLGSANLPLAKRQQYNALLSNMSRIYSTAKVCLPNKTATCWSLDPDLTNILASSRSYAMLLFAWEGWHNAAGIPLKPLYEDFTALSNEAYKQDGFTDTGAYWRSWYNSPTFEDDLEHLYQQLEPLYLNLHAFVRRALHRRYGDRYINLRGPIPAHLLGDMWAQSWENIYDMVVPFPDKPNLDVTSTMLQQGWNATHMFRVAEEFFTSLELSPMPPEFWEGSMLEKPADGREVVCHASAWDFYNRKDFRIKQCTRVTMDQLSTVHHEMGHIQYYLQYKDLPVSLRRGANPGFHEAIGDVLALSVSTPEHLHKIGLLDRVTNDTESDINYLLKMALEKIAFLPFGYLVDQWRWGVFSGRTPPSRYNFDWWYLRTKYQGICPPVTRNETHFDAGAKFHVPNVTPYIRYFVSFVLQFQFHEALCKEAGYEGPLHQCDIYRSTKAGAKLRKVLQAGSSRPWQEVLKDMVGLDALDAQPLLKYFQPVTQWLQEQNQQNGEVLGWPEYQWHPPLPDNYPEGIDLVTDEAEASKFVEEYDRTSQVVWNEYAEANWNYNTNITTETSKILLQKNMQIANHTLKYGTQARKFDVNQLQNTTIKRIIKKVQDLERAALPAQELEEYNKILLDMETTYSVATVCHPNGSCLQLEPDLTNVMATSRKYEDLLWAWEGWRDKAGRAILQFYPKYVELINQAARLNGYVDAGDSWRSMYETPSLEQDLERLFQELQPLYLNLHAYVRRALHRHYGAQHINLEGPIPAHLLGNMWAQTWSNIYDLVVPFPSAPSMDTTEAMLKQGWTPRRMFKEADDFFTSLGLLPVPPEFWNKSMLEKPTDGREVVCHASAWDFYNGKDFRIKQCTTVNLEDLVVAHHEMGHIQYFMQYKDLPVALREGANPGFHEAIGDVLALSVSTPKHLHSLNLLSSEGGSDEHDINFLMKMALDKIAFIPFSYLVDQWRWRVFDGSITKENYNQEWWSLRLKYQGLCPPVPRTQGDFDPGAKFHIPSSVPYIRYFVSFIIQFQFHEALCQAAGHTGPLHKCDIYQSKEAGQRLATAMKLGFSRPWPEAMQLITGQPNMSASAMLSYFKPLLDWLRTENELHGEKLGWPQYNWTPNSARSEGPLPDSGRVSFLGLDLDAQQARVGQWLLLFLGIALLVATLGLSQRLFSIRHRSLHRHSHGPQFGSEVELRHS", "conditions": "cited from earlier work"}, "[2]": {"system": "spontaneously hypertensive rats", "conditions": "among nine identified peptide sequences; cited from earlier work"}, "[3]": {"conditions": "inhibitory activity (%) versus sample concentration (mg powder ml^−1)"}},
  "note": "Like-named read-outs stand apart in the source and are kept apart here. No end group written: not given here.",
  "data": [
    {"substance": "ALPMHIR [β-1 g f142–148, Ala-Leu-Pro-Met-His-Ile-Arg]", "values": [
      {"measurement": "Slope m of linear regression (y=m lnX+b) of the ACE-inhibitory activity curve", "setting": "[1]; [3]", "result": 10.35},
      {"measurement": "Y-intercept b of linear regression (y=m lnX+b) of the ACE-inhibitory activity curve", "setting": "[1]; [3]", "result": 84.4},
      {"measurement": "IC50", "setting": "[1]; rabbit lung ACE, HHL substrate, 37° C. for 20 min, 6 concentrations in triplicate, calculated from linear regression, read-out: IC50 (concentration of inhibitor which gives 50% inhibition of ACE activity) (converted)", "result": 47.8, "unit": "µM"},
      {"measurement": "IC50", "setting": "ACE; Mullally et al. 1997, read-out: IC50 (ACE inhibition)", "result": 42.6, "unit": "µM"}
    ]},
    {"substance": "peptide f23–34 from xsl casein: peptide f23–34 from casein (bovine, variant B), from tryptic casein hydrolysate (FFVAPFPEVFGK; Alpha-S1-casein; UniProt P02662 38-49, looked up, fragment)", "values": [
      {"measurement": "IC50", "setting": "ACE; Maruyama and Suzuki, tryptic casein hydrolysate peptide, read-out: IC50 (concentration needed to inhibit 50% ACE activity)", "result": 77, "unit": "µM"}
    ]},
    {"substance": "β-lactoglobulin (f78–80): peptide fragment 78–80 of β-lactoglobulin from proteinase K digestion of cheese whey protein (Abubakar et al.) (IPA; UniProt P02754 94-96, looked up, fragment)", "values": [
      {"measurement": "antihypertensive activity", "setting": "[2]", "result": "strongest antihypertensive activity"}
    ]}
  ]
}
